# Columns and labels:
# Tyr mice [1] = test: CatWalk gait analysis; type: in vivo, mouse
# Procedure: Animals—Animals were housed under a 12-hour light/dark cycle, with food and water ad-libitum. Mouse pups were subcutaneously administrated with NAP [having an amino acid sequence NAPVSIPQ (SEQ ID NO: 2), 25 μg NAP/1 ml saline] as described (8, 12). At 21 days of age mice were administered daily intranasal NAP in vehicle solution (“DD”—7.5 mg/ml of NaCl, 1.7 mg/ml of citric acid, 3 mg/ml of disodium phosphate dihydrate, and 0.2 mg/ml of 50% benzalkonium chloride solution) (0.5 μg NAP/5p1 DD) (8, 9, 12, and U.S. Pat. No. 10,912,819 to Gozes). These mice continued to behavioral analysis as described hereinbelow. The noninvasive intranasal route was chosen as these experiments required daily handling and administration. Age (weeks) of mice during behavioral experiments (mean±SEM) was as follows: Catwalk—9.23±0.15, grooming—10±0.15, social approach—10.5±0.12, odor-discrimination—12.12±0.13, hanging-wire—13±0.14, hotplate—13.18±0.13. Group size was determined following previous experiments (12). Pups were randomly allocated to either the NAP or DD group according to sex and genotype. All procedures involving animals were conducted under the supervision and approval of the institutional animal care and use committee of Tel Aviv University and the Israeli Ministry of Health.
# Catwalk—Was performed as previously described (12).
# Briefly, for ear twitch reflex, a cotton tip was gently brushed against the tip of the ear three times, between postnatal days 7-15 or until the pup responded correctly for two consecutive days. For air righting reflex, the pup was held up-side down and released ˜10.5 cm above the cage, containing 5 cm of shavings. The test was performed between postnatal days 8-21 or until the pup landed on the shavings with all four paws, for two consecutive days. For surface righting reflex, pups were placed on their backs on a level surface, the test was performed between postnatal days 1-13 until the pups was able to right itself with all four paws on the surface in under a second for two consecutive days. For eye opening, mice were observed daily until both eyes were open (eyelids separated completely). For auditory startle, the pup was placed on a level surface and the experimenter clapped loudly twice until a visible startle response was evident for 2 consecutive days. The test was performed between days 7-18. For cliff aversion, pups were placed on the edge of a small box (approx. 4 cm in height) with both paws protruding over the edge of the box. Pups were allowed 30 sec to avoid the cliff and move themselves backwards. Test was performed between day 1-14 until the pup avoided the cliff in under 30 sec for two consecutive days^9. For the rooting reflex, a cotton tip was gently brushed against the sides of the pup's mouth until the pup moved its head to the direction of the stroke. Both sides were tested twice. […] All tests were conducted between 10 AM-4 PM. For the first 5 postnatal days, each pup was put under a single 60-watt bulb during testing to assure the pups' warmth. • Novel object recognition: Briefly, the open field test was used for the first day of habituation since both tests are conducted in the same arena. The following day animals underwent another habituation to the arena (5 mins). As described, the test included two consecutive days of habituation and the experimental days which consisted of the three phases. […]
# Tyr mice [2] = test: Ultrasonic vocalizations (USV) and syntax analysis of P8 pups (DeepSqueak); type: in vivo, mouse
# Description: The Intensity parameter is used to assess the effects of neuropathic pain, including mechanical allodynia. Max Contact Mean Intensity is the mean Intensity of a paw at Max Contact. Print length is the length (horizontal direction) of the complete print. The complete print is the sum of all contacts with the glass plate, as if the animal's paw would have been inked. Print width is the width (vertical direction) of the complete paw. Print area is the surface area of the complete print. Max Intensity is the maximum Intensity of the complete paw. Mean intensity is the mean Intensity of the complete paw. • USV: On P8, each pup was separated from the dam and placed in an empty cage for 6 minutes, in a quiet room and was recorded using the M500-384 USB Ultrasound Microphone (Petterson, Sweden). Pups were distinguished from one another using the tattoos listed above. After 6 minutes pups were reunited with its dam. Data were analyzed using DeepSqueak. Data were loaded onto DeepSqueak, frequencies between 40-70 kHz were analyzed using the mouse call network V2. Calls were denoised using post hoc denoising network. For syntax analysis, Syntax was classified using Wright K means network. Syntax transition probability charts were generated using DeepSqueak and Matlab. Further USV experiments were performed on P8 pups as previously described (12) with slight modifications.
# Tyr mice [3] = test: Visual evoked potentials (VEP); type: in vivo, mouse; set-up: key to NAP efficacy: visual evoked potential/axonal transport: corrections by NAP treatment (+)
# Procedure: VEP—5.72±0.52-week-old male mice were used for VEP measurements. Animals were treated for 3 days with 0.1 ml S.C saline, recorded, and then followed by 4 daily S.C doses of either 1 μg NAP (in 0.1 ml saline) or 0.1 ml saline followed by another VEP recording.
# [4] = system: mice with the ASD-linked InsG3680 mutation (SHANK3); test: Open field behavior in the SHANK3 mouse model; type: in vivo; settings: intranasal NAP once daily, five days a week for a month
# Procedure: To this end, mice with the ASD-linked InsG3680 mutation were used. Two behavioral assessments were performed on make mice: • 1) Open field behavior attesting to anxiety and depression (Open field behavioral assessment technology was previously described, e.g.); and • 2) Social recognition behavior, related to autistic traits (the social recognition test was previously described, e.g..
# This surprising finding is of importance as there is a psychiatric illness and regression in individuals with Phelan-McDermid syndrome.
# [5] = adult patients; cited from earlier work
compound,measurement,setting,value
"CC[C@H](C)[C@H](NC(=O)[C@H](CO)NC(=O)[C@@H](NC(=O)[C@@H]1CCCN1C(=O)[C@H](C)NC(=O)[C@@H](N)CC(N)=O)C(C)C)C(=O)N1CCC[C@H]1C(=O)N[C@@H](CCC(N)=O)C(=O)O [NAP, NAPVSIPQ]",gait,"Tyr mice [1]; WT mice, data not shown",No major NAP effect was observed in WT mice
same,gait: intensity parameters,Tyr mice [1]; female Tyr mice,significant NAP correction
same,gait: swing speed and swing duration,Tyr mice [1]; female Tyr mice,ameliorated by NAP
same,gait: front base of support,Tyr mice [1]; male Tyr mice,NAP correcting this phenotype in males
same,gait: print length and area,"Tyr mice [1]; male Tyr mice, daily intranasal NAP",significant NAP recovery
same,total USVs,Tyr mice [2]; Tyr female and male P8 pups,no NAP effects
same,syntax,"Tyr mice [2]; WT pups, data not shown",minor varied impact on WT pups
same,"syntax transition probabilities, Xi square analysis Tyr vs. Tyr NAP","Tyr mice [2]; females, p<0.001",significant improvement with NAP treatment
same,"syntax transition probabilities, Xi square analysis Tyr vs. Tyr NAP","Tyr mice [2]; males, p=0.027",same significant changes
same,VEP P3 AUC,Tyr mice [3]; Tyr males,significant NAP effect seen in the 300 and 3000 mcd intensities
same,NAP efficacy: visual evoked potential/axonal transport,Tyr mice [3]; Tyr mouse (first symbol),+/+
same,open field: cumulative duration in the center,[4],significantly increased by NAP treatment
same,efficacy in clinical studies,[5],enhancement of cognitive function and functional activities of daily living

# From patent publication US20250032581A1, “COMPOSITIONS AND ARTICLES COMPRISING AN ADNF POLYPEPTIDE” (RAMOT AT TEL-AVIV UNIVERSITY LTD., priority 2021, published 2025)
